The record followed here is US20210169892A1, “MODULATORS OF THE INTEGRATED STRESS PATHWAY” (Calico Life Sciences LLC, priority 2017, published 2021).

In the experiment the test system is HEK293T cells carrying the ATF4 luciferase reporter. Nature of the experiment: ATF4-Luc assay (in vitro model of vanishing white matter disease). Type of experiment: cell-based. Conditions: Homo sapiens, HEK-293T; HEK293T cells with ATF4 luciferase reporter, 1 μg/mL tunicamycin, 7 hours, One Glo luminescence. Here is the method: In order to test exemplary compounds of the invention in a cellular context, a stable VWMD cell line was first constructed. The ATF4 reporter was prepared by fusing the human full-length ATF4 5′-UTR (NCBI Accession No. BC022088.2) in front of the firefly luciferase (FLuc) coding sequence lacking the initiator methionine as described in Sidrauski et al (eLife 2013). The construct was used to produce recombinant retroviruses using standard methods and the resulting viral supernatant was used to transduce HEK293T cells, which were then subsequently selected with puromycin to generate a stable cell line.
HEK293T cells carrying the ATF4 luciferase reporter were plated on polylysine coated 384-well plates (Greiner Bio-one) at 30,000 cells per well. Cells were treated the next day with 1 μg/mL tunicamycin and 200 nM of a compound of Formula (I) for 7 hours. Luminescence was measured using One Glo (Promega) as specified by the manufacturer. Cells were maintained in DMEM with L-glutamine supplemented with 10% heat-inactivated FBS (Gibco) and Antibiotic-Antimycotic solution (Gibco).
Table 2 below summarizes the EC50 data obtained using the ATF4-Luc assay for exemplary compounds of the invention.
A general note: A reporter such as luciferase makes a cellular process visible.
As for `O=C(COc1ccc(Cl)c(F)c1)NC12CC(NC(=O)C3CN(C(=O)CCCC(F)(F)F)c4cc(Cl)ccc4O3)(C1)C2` (stereo not shown) [Compound 167, 6-chloro-N-{3-[2-(4-chloro-3-fluorophenoxy)acetamido]bicyclo[1.1.1]pentan-1-yl}-4-(5,5,5-trifluoropentanoyl)-3,4-dihydro-2H-1,4-benzoxazine-2-carboxamide], the EC50 fell in the range of 250 to 500 nM. In the case of `O=C(COc1ccc(Cl)c(F)c1)NC12CC(NC(=O)[C@@H]3CCc4cc(F)ccc4O3)(C1)C2` [Compound 121, (2S)—N-{3-[2-(4-chloro-3-fluorophenoxy)acetamido]bicyclo[1.1.1]pentan-1-yl}-6-fluoro-3,4-dihydro-2H-1-benzopyran-2-carboxamide], the EC50 was less than 10 nM. As to `CC(C)(C)OC(=O)CN1C[C@@H](C(=O)NC23CCC(NC(=O)COc4ccc(Cl)c(F)c4)(CC2)C(O)C3)Oc2ccc(Cl)cc21` (stereo in doubt) [Compound 184, tert-butyl [(2S)-6-chloro-2-({(3S)-4-[2-(4-chloro-3-fluorophenoxy)acetamido]-3-hydroxybicyclo[2.2.2]octan-1-yl}carbamoyl)-2,3-dihydro-4H-1,4-benzoxazin-4-yl]acetate], the EC50 fell in the range of 250 to 500 nM. As for `COC(=O)CNC1CC(C(=O)NC23CC(NC(=O)COc4ccc(Cl)c(F)c4)(C2)C3)Oc2ccc(Cl)cc21` (stereo not shown) [Compound 189, methyl {[6-chloro-2-({3-[2-(4-chloro-3-fluorophenoxy)acetamido]bicyclo[1.1.1]pentan-1-yl}carbamoyl)-3,4-dihydro-2H-1-benzopyran-4-yl]amino}acetate], the EC50 lay within 10 to 50 nM. For the molecule `CN1C[C@@H](C(=O)NC23CC(NC(=O)COc4ccc(Cl)c(F)c4)(C2)C3)Oc2ccc(Cl)cc21` (single isomer, unassigned) [Compound 104], the EC50 is less than 10 nM. Turning to `O=C(COc1ccc(Cl)c(F)c1)NC12CC(NC(=O)[C@H]3Cc4ccccc4N3)(C1)C2` [Compound 128, (2R)—N-{3-[2-(4-chloro-3-fluorophenoxy)acetamido]bicyclo[1.1.1]pentan-1-yl}-2,3-dihydro-1H-indole-2-carboxamide], the EC50 was 50 to 250 nM. As to `O=C(COc1ccc(Cl)c(Cl)c1)NC12CCC(NC(=O)[C@H]3COc4cc(Cl)ccc4O3)(CC1)C[C@@H]2O` [Compound 116, (2R)-6-chloro-N-{(3S)-4-[2-(3,4-dichlorophenoxy)acetamido]-3-hydroxybicyclo[2.2.2]octan-1-yl}-2,3-dihydro-1,4-benzodioxine-2-carboxamide], the EC50 is less than 10 nM. Consider `O=C(COc1ccc(Cl)c(F)c1)NC12CC(NC(=O)C3Oc4ccccc4NC3=O)(C1)C2` (stereo not shown) [Compound 109, N-{3-[2-(4-chloro-3-fluorophenoxy)acetamido]bicyclo[1.1.1]pentan-1-yl}-3-oxo-3,4-dihydro-2H-1,4-benzoxazine-2-carboxamide], for which the EC50 lay within 500 to 2000 nM. `O=C(COc1ccc(Cl)c(F)c1)NC12CC(NC(=O)C3CN(CCO)c4cc(Cl)ccc4O3)(C1)C2` (stereo not shown) [Compound 135, 6-chloro-N-{3-[2-(4-chloro-3-fluorophenoxy)acetamido]bicyclo[1.1.1]pentan-1-yl}-4-(2-hydroxyethyl)-3,4-dihydro-2H-1,4-benzoxazine-2-carboxamide]: the EC50 was less than 10 nM. Take `COc1ccc(S(=O)(=O)N2CC(C(=O)NC34CC(NC(=O)COc5ccc(Cl)c(F)c5)(C3)C4)Oc3ccc(Cl)cc32)cc1` (stereo not shown) [Compound 164, 6-chloro-N-{3-[2-(4-chloro-3-fluorophenoxy)acetamido]bicyclo[1.1.1]pentan-1-yl}-4-(4-methoxybenzene-1-sulfonyl)-3,4-dihydro-2H-1,4-benzoxazine-2-carboxamide]: the half-maximal effective concentration (EC50) is more than 2000 nM. `O=C(COc1ccc(Cl)c(F)c1)NC12CC(NC(=O)[C@@H]3CNc4cc(Cl)ccc4O3)(C1)C2` (single isomer, unassigned) [Compound 103]: the EC50 is less than 10 nM. With `CS(=O)(=O)N1CC(C(=O)NC23CC(NC(=O)COc4ccc(Cl)c(F)c4)(C2)C3)Oc2ccc(Cl)cc21` (stereo not shown) [Compound 168, 6-chloro-N-{3-[2-(4-chloro-3-fluorophenoxy)acetamido]bicyclo[1.1.1]pentan-1-yl}-4-(methanesulfonyl)-3,4-dihydro-2H-1,4-benzoxazine-2-carboxamide], the concentration for a half-maximal effect (EC50) was 50 to 250 nM.

Turning to `O=C(COc1ccc(Cl)c(F)c1)NC12CC(NC(=O)C3COc4cc(F)c(F)cc4O3)(C1)C2` (stereo not shown) [Compound 118, N-{3-[2-(4-chloro-3-fluorophenoxy)acetamido]bicyclo[1.1.1]pentan-1-yl}-6,7-difluoro-2,3-dihydro-1,4-benzodioxine-2-carboxamide], the EC50 was less than 10 nM. As for `O=C(COc1ccc(Cl)c(F)c1)NC12CC(NC(=O)C3CN(C(=O)C4(F)CC4)c4cc(Cl)ccc4O3)(C1)C2` (stereo not shown) [Compound 140, 6-chloro-N-{3-[2-(4-chloro-3-fluorophenoxy)acetamido]bicyclo[1.1.1]pentan-1-yl}-4-(1-fluorocyclopropane-1-carbonyl)-3,4-dihydro-2H-1,4-benzoxazine-2-carboxamide], the EC50 lay in the range of 50 to 250 nM. For `O=C(COc1ccc(Cl)c(F)c1)NC12CC(NC(=O)C3CN(C(=O)c4ccc(OC(F)(F)F)cc4)c4cc(Cl)ccc4O3)(C1)C2` (stereo not shown) [Compound 143, 6-chloro-N-{3-[2-(4-chloro-3-fluorophenoxy)acetamido]bicyclo[1.1.1]pentan-1-yl}-4-[4-(trifluoromethoxy)benzoyl]-3,4-dihydro-2H-1,4-benzoxazine-2-carboxamide] the value was 500 to 2000 nM; for `CN1CC(C(=O)NC23CC(NC(=O)COc4ccc(Cl)c(F)c4)(C2)C3)Oc2ccc(Cl)cc21` (stereo not shown) [Compound 112, 6-chloro-N-{3-[2-(4-chloro-3-fluorophenoxy)acetamido]bicyclo[1.1.1]pentan-1-yl}-4-methyl-3,4-dihydro-2H-1,4-benzoxazine-2-carboxamide], less than 10 nM. For `COCC(=O)N1CC(C(=O)NC23CC(NC(=O)COc4ccc(Cl)c(F)c4)(C2)C3)Oc2ccc(Cl)cc21` (stereo not shown) [Compound 158, 6-chloro-N-{3-[2-(4-chloro-3-fluorophenoxy)acetamido]bicyclo[1.1.1]pentan-1-yl}-4-(methoxyacetyl)-3,4-dihydro-2H-1,4-benzoxazine-2-carboxamide] the value was 10 to 50 nM; for `O=C(COc1ccc(Cl)c(F)c1)NC12CC(NC(=O)C3CN(C(=O)c4ccncc4)c4cc(Cl)ccc4O3)(C1)C2` (stereo not shown) [Compound 169, 6-chloro-N-{3-[2-(4-chloro-3-fluorophenoxy)acetamido]bicyclo[1.1.1]pentan-1-yl}-4-(pyridine-4-carbonyl)-3,4-dihydro-2H-1,4-benzoxazine-2-carboxamide], 250 to 500 nM. Turning to `O=C(COc1ccc(Cl)c(F)c1)NC12CC(NC(=O)C3CN(C(=O)C(F)(F)C(F)(F)F)c4cc(Cl)ccc4O3)(C1)C2` (stereo not shown) [Compound 178, 6-chloro-N-{3-[2-(4-chloro-3-fluorophenoxy)acetamido]bicyclo[1.1.1]pentan-1-yl}-4-(2,2,3,3,3-pentafluoropropanoyl)-3,4-dihydro-2H-1,4-benzoxazine-2-carboxamide], the EC50 was less than 10 nM. Then `C[C@]1(C(=O)NC23CC(NC(=O)COc4ccc(Cl)c(F)c4)(C2)C3)COc2cc3c(cc21)OC(F)(F)O3` [Compound 131, (7R)—N-{3-[2-(4-chloro-3-fluorophenoxy)acetamido]bicyclo[1.1.1]pentan-1-yl}-2,2-difluoro-7-methyl-6,7-dihydro-2H-furo[2,3-f][1,3]benzodioxole-7-carboxamide], with 500 to 2000 nM. For `O=C(COc1ccc(F)c(F)c1)NC12CC(NC(=O)C3COc4cc(Cl)c(Cl)cc4O3)(C1)C2` (stereo not shown) [Compound 117, 6,7-dichloro-N-{3-[2-(3,4-difluorophenoxy)acetamido]bicyclo[1.1.1]pentan-1-yl}-2,3-dihydro-1,4-benzodioxine-2-carboxamide] the value was less than 10 nM. As for `O=C(COc1ccc(Cl)c(F)c1)NC12CC(NC(=O)C3CN(S(=O)(=O)c4ccc(F)cc4)c4cc(Cl)ccc4O3)(C1)C2` (stereo not shown) [Compound 166, 6-chloro-N-{3-[2-(4-chloro-3-fluorophenoxy)acetamido]bicyclo[1.1.1]pentan-1-yl}-4-(4-fluorobenzene-1-sulfonyl)-3,4-dihydro-2H-1,4-benzoxazine-2-carboxamide], the EC50 lay within 500 to 2000 nM.

In the case of `COc1ccc(C(=O)N2CC(C(=O)NC34CC(NC(=O)COc5ccc(Cl)c(F)c5)(C3)C4)Oc3ccc(Cl)cc32)cc1` (stereo not shown) [Compound 150, 6-chloro-N-{3-[2-(4-chloro-3-fluorophenoxy)acetamido]bicyclo[1.1.1]pentan-1-yl}-4-(4-methoxybenzoyl)-3,4-dihydro-2H-1,4-benzoxazine-2-carboxamide], the EC50 was in the range of 250 to 500 nM. For the molecule `O=C(COc1ccc(Cl)c(F)c1)NC12CC(NC(=O)C3CN(C(=O)C4CCOC4)c4cc(Cl)ccc4O3)(C1)C2` (stereo not shown) [Compound 152, 6-chloro-N-{3-[2-(4-chloro-3-fluorophenoxy)acetamido]bicyclo[1.1.1]pentan-1-yl}-4-(oxolane-3-carbonyl)-3,4-dihydro-2H-1,4-benzoxazine-2-carboxamide], the 50% effective concentration (EC50) fell in the range of 250 to 500 nM. Take `O=C(O)CC1c2ccccc2CCN1C(=O)NC12CC(NC(=O)COc3ccc(Cl)c(F)c3)(C1)C2` (stereo not shown) [Compound 155, [2-({3-[2-(4-chloro-3-fluorophenoxy)acetamido]bicyclo[1.1.1]pentan-1-yl}carbamoyl)-1,2,3,4-tetrahydroisoquinolin-1-yl]acetic Acid]: the EC50 is more than 2000 nM.

Usually EC50 stands for the concentration needed to bring the measured effect to its halfway point.
